Measurements reported in article PMC8794153, “Access to highly specialized growth substrates and production of epithelial immunomodulatory metabolites determine survival of Haemophilus influenzae in human airway epithelial cells” (PLoS Pathogens, 2022).

What was measured:
[1] = tested on: LldD L-lactate dehydrogenase; conditions: read-out: KM_app; DCPIP 0.1 mM electron acceptor, PMS 0.25 mM, MgCl2 2 mM, phosphate pH 7.4, 37 °C
LdhA = tested on: T1, LdhA; assay: NADH oxidation at […] nm, cell-free extract; assay type: cell-based, Haemophilus influenzae; conditions: Tris-Cl pH 7.5, 37 °C
T1 construct: native soluble enzyme in cell-free extract of Hi2019; not purified; no tag

Structure (SMILES): C[C@H](O)C(=O)O [L-lactate]
- Km [1]: 300 ± 30 µM

Structure (SMILES): NC(=O)C1=CN([C@@H]2O[C@H](COP(=O)(O)OP(=O)(O)OC[C@H]3O[C@@H](n4cnc5c(N)ncnc54)[C@H](O)[C@@H]3O)[C@@H](O)[C@H]2O)C=CC1 [NADH]
- Km (LdhA; pyruvate co-substrate (std. 10 mM)): 55 ± 3 µM

Structure (SMILES): CC(=O)C(=O)O [pyruvate]
- Km (LdhA; NADH co-substrate): 3380 ± 840 µM
